In patent US4077949A, “Polypeptide hormones of the thymus” (Sloan-Kettering Institute for Cancer Research, priority 1975, dated 1978):
Ends that are not written are not given here.

Assays:
[1] = tested on: TL antigen on mouse bone marrow cells; test: Cytotoxic inhibition test: induction of TL antigen on bone marrow cells; assay type: cell-based; conditions: for absorption of anti TL antibody by incubated bone marrow cells: unfractionated cells, 100 ng/ml, 18 hours
Source text: (§1) Mice of the A/J, C57B1/6J, AKR/J and C58/J strains were purchased from the Jackson Laboratories (Bar Harbon, Me). A.TL-mice were bred at New York University from foundation stock. All mice were housed eight to a cage, and maintained on commercial high protein mouse pellets and acidified water.
(§2) Antibodies to TL antigen were produced by injecting live tumor cells (ASL-1) into A.TL- x C57B1/6J F.1 mice. After five semimonthly injections the animals were bled and the resultant serum pooled, absorbed with A.TL- thymus to remove autoantibodies, and stored in small aliquots at -70° C. […] Anti Thy 1-2 (0-C3H) was produced by injecting AKR/J mice with C58/J thymocytes and absorbing the resultant antiserum with AKR/J thymocytes.
Thymin I and Thymin II were isolated from bovine thymus as described. Each was dissolved in phosphate buffered saline (containing 1 mg/ml of bovine serum albumen to minimize adsorbtive losses), distributed into 2 μg lots and lyophilized. Each polypeptide was reconstituted in tissue culture medium at the desired concentrations just prior to use.
(§3) Bone marrow cells were obtained from the femoral marrow. Both spleen and marrow cells were teased into single cell suspensions and washed three times in RPMI 1640 medium supplemented with 10 mM Hepes and 100 U/ml of penicillin and 100 μg/ml of streptomycin. The cells were then suspended in the same medium with 10% bovine serum at a concentration of 5.0×10^6 cells/ml. One milliliter of this suspension was incubated with an appropriate dilution of thymin in 16 mm plastic petrie dishes in a humidified atmosphere containing 5% CO2 in air. At the end of the incubation the cells were washed twice and held at 4° C. at a concentration of 5.0×10^6 cells/ml in culture medium until tested for the presence of TL or Thy-1(0).
ASL-1, a TL positive, Thy 1-2 (0-C3H) positive lymphoma of A strain mice was used as the target cell in all titrations of the antisera used in these experiments, and in the cytotoxic inhibition test to be described below. The lymphoma was maintained by weekly intraperitoneal passage in A/J mice. Lymophoma cells were labelled with Cr^51 and used as target cells in the cytotoxic inhibited test.
Antisera to either TL or Thy-1 (0) were titered to determine the quantity of antibody which was required to kill 50% of the target cells in a standard suspension. The appropriate amount of antiserum was added to each well of a microtiter plate with various dilutions of the cells being tested for their antigen content. The total volume was 0.15 ml. Cells expressing the antigen against which the antiserum was directed absorbed varying amounts of the antibody, and rendered less available to react with the Cr^51 labelled target cells which were added subsequently. The concentration of antibody used was extremely critical to the sensitivity of the test. The antisera to TL or Thy-1 (0) and the cells being tested for their antigen content were incubated together at 4° C. for 90 minutes. After this incubation 50,000 target cells in a volume of […] were added and the incubation continued in the cold for an additional 30 minutes to permit the sensitization of the target cells by the remaining unabsorbed antibody. The plates were then centrifuged at 1,500 rpm for 10 minutes and the supernatant fluid removed. The pelleted cells were resuspended in 0.1 ml or RPMI 1640, containing 4% fresh rabbit serum as a source of complement, and incubated for 45 minutes at 37° C. The cells were then repelleted by centrifugation and a 0.075 ml aliquot of the supernatant fluid was counted in an automatic gamma spectrometer to determine the amount of Cr^51 released from the target cells. All assays were performed in duplicate and the results were expressed by calculating the number of cells required to reduce the relative cytotoxic index (RCI) to 0.5. The RCI was calculated as follows: [formula]

[2] = tested on: bone marrow cells (least dense BSA gradient fraction); test: Direct cytotoxic test (trypan blue), anti TL antiserum plus complement, bone marrow cells; assay type: cell-based
Procedure: as §3
(§4) Bone marrow and spleen cells were obtained by flotation in BSA gradients similar to those used by Komuro and Boyse (Lancet, 10, 39, 1964). These cells were tested for their susceptibility to anti TL and Thy-1-(0) antibodies in a direct cytotoxicity test, using the uptake of trypan blue as a measure of cell death.

[3] = tested on: spleen cells (least dense BSA gradient fraction); test: Direct cytotoxic test (trypan blue), anti TL antiserum plus complement, spleen cells; assay type: cell-based, mouse; conditions: 20 ng/ml for two hours
Procedure: as §3, §4

[4] = tested on: neuromuscular transmission; test: Electromyographic assay of neuromuscular transmission in mice after injection; assay type: in vivo; conditions: for activity of QAE-Sephadex fractions in producing neuromuscular block: fractions of Example 1, FIG. 3; for dose above which a statistically significant (P < .001) electromyographic decrement was produced / mean decrement: height of the tenth muscle action potential as % of the first: mice; for dose above which a statistically significant (P < .001) electromyographic decrement was produced: five days after dose, supramaximal nerve stimulation at 50 impulses per second; for mean decrement: height of the tenth muscle action potential as % of the first: five days after doses above threshold, 50 impulses per second, controls 94 ± 2%; for active dose range per body weight: test not specified
Procedure: To determine the neuromuscular action of Thymin I and Thymin II, the electromyographic response of mice five days after various doses of Thymin I or Thymin II is summarized in FIG. 4. Bovine serum albumin (0.5 mg/ml, 0.9% saline) was used as a protein stabilizer and controls were injected with the solvent alone.
In 15 control mice sampled at 75 sites the height of the tenth muscle action potential was 94 ± 2% (mean ± s.e.m.) of the height of the first. The mean values and s.e.m. (vertical bars) are shown for groups of 4-10 mice given various doses of Thymin I(o) and Thymin II (.quadrature.). Statistical significances of differences from the controls were calculated by Student's t-test and are shown by solid symbols (P < 0.001), half solid symbols (0.05 > P < 0.001) and open symbols (P > 0.05).
Mice were given 100 ng of Thymin I or solvent and five mice from each group were tested at various times. With supramaximal nerve stimulation at 50 impulses per second the height of the tenth muscle action potential was expressed as a percentage of the first. This change was calculated for five points in each of five to ten mice from each group. For each time point the change in Thymin-treated mice was expressed as a percentage of the change in solvent-treated control mice and the statistical significance of the difference was assessed by Student's t-test. A statistically significant (P < .001) abnormality in the electromyogram was first evident at 18 hours, was maximal at 24 hours and persisted through 5 days.
To make the determinations described in FIGS. 4 and 5, extracts were injected into test animals and neuromuscular transmission was studied after an interval of one to five days. Initially 100 g guinea pigs were injected intraperitoneally; neuromuscular transmission was studied in vitro with a preparation of the phrenic nerve and hemidiaphragm. Subsequently, 200 g rats were used; fractions were injected subcutaneously and neuromuscular transmission was assessed electromyographically. […] Female Swiss-Webster mice weighing 25-35 g were injected intraperitoneally, groups of five to ten mice being used to test each fraction. The animals were anesthetized with urethane and electromyography was performed as described. The muscle action potentials were recorded in each mouse following supramaximal nerve stimulation with ten impulses at a rate of 50 per second. Five sites were sampled in each mouse and for each group of mice the mean standard deviation and s.e.m. were calculated for the change in the height of the muscle action, potential being expressed as a percentage of the height of the first impulse.
The statistical significance of differences found were assessed by student's t-test.

[5] = tested on: Thy-1(θ) antigen on mouse bone marrow cells; test: Cytotoxic inhibition test: induction of Thy-1(θ) antigen on bone marrow cells; assay type: cell-based; conditions: unfractionated cells, 100 ng/ml, 18 hours
Source text: as §1, §2
Thymin I and Thymin II were isolated from bovine thymus as described. Each was dissolved in phosphate buffered saline (containing 1 mg/ml of bovine serum albumen to minimize adsorbtive losses), distributed into 2 μg lots and lyophilized. […]
Antisera to either TL or Thy-1 (0) were titered to determine the quantity of antibody which was required to kill 50% of the target cells in a standard suspension. […] The cells were then repelleted by centrifugation and a 0.075 ml aliquot of the supernatant fluid was counted in an automatic gamma spectrometer to determine the amount of Cr^51 released from the target cells. […] The RCI was calculated as follows: [formula]

[6] = Thymin I compared with Thymin II
[7] = single injection of 100 ng per mouse

| Substance | active concentration as a fraction of that of the Bach et al. preparation [1] | relative potency in inducing TL and Thy-1(θ) antigens [1, 6] | concentration giving maximal induction of TL and Thy-1(θ) antigens ([1]; bone marrow cells) | lowest concentration producing a measurable (detectable) response ([1]; bone marrow cells) | absorption of anti TL antibody by incubated bone marrow cells [1] | death of bone marrow cells caused by anti TL antiserum plus complement ([2]; 20 ng/ml for two hours, least dense fraction) | highest cell death values obtained in other experiments ([2]; anti TL antiserum plus complement, tissue not specified) | death of spleen cells caused by anti TL antiserum plus complement [3] | relative activity on neuromuscular transmission [4, 6] | activity of QAE-Sephadex fractions in producing neuromuscular block [4] | dose above which a statistically significant (P < .001) electromyographic decrement was produced [4] | mean decrement: height of the tenth muscle action potential as % of the first [4] | time at which abnormality in the electromyogram was maximal [4, 7] | time through which abnormality in the electromyogram persisted [4, 7] | time at which abnormality in the electromyogram was first evident ([4]; single injection of 100 ng per mouse, P < .001) | active dose range per body weight [4] | absorption of anti Thy-1(θ) antibody by incubated bone marrow cells [5] |
| --- | --- | --- | --- | --- | --- | --- | --- | --- | --- | --- | --- | --- | --- | --- | --- | --- | --- |
| GQFLEDPSVLTKEKLKSELVANNVTLPAGEQRKDVYVQLYLQHLTAVKR [Thymin I, H2 -gly-gln-phe-leu-glu-asp-pro-ser-val-leu-thr-lys-glu-lys-leu-lys-ser-glu-leu-val-ala-asn-asn-val-thr-leu-pro-ala-gly-glu-gln-arg-lys-asp-val-tyr-val- gln-leu-tyr-leu-gln-his-leu-thr-ala-val-lys-arg-cooh] | approximately one thousandth | slightly more potent | 2 ng/mL | 20 pg/mL | absorbed antibodies | 21% | ≤ 28% | 18% | slightly more active | active in producing neuromuscular block | above 4 ng/mouse | 84% | 24 h | ≥ 5 days | 18 h | above 0.1 mg/kg of body weight | absorbed antibodies |
| H2 n-ser-gln-phe-leu-glu-asp-pro-ser-val-leu-thr-lys-glu-lys-leu-lys-ser-glu- leu-val-ala-asn-asn-val-thr-leu-pro-ala-gly-glu-gln-arg-lys-asp-val-tyr-val-gln-leu-tyr-leu-gln-thr-leu-thr-ala-val-lys-arg-cooh [Thymin II] | – | – | – | – | absorbed antibodies | – | – | – | – | active in producing neuromuscular block | above 32 ng/mouse | 82% | – | – | – | above 0.1 mg/kg of body weight | absorbed antibodies |
